Data reported in patent US10471041B2, “Use of geninstein” (DSM IP ASSETS B.V., priority 2007, dated 2019).

Tested on: rats treated with scopolamine
Test: Zone Quick test (phenol red thread) of tear production in the scopolamine dry eye model
Format: in vivo, rat
Conditions: FIG. 1
Experimental: Another well-accepted model of dry eye is the scopolamine model which utilizes subcutaneous injections (5 mg in 10 ml) or dermal patch or gel dosage (Durson et al., Invest. Ophthalmol. Vis. Sci. 43: 632-8, 2002) of scopolamine to induce a dry eye condition in rats by parasympatholytic blockade of natural tear production.
These models and their variations were used to test the efficacy of genistein, delivered as a feed admixture (50 mg/kg low dose and 250 mg/kg high dose) to ameliorate the effects of dry eye. In addition, one test group served as a control group, receiving vehicle feed only with no added isoflavonoids.
Tear volume was assessed by using absorptive threads impregnated with Phenol Red (zone quick test). Outcome measures are according to criteria published in test instructions as well as comparison with control animal results.
Tear volume was monitored by the Zone Quick test. This in-life test is a standardized measure of tear production. It consists of a thread impregnated with phenol red which causes a colour change of the length of the thread that becomes wet from tears when the thread is applied to the lacrimal lake. The length (in mm) of the wetted thread is proportional to the tear volume produced.
0-CON, 0-SCOP: each 8 control animals (not on scopolamine or on scopolamine)
50-SCOP: 8 animals (on scopolamine) suppl. with 50 ppm genistein […]

In the case of `O=c1c(-c2ccc(O)cc2)coc2cc(O)cc(O)c12` [genistein, 4′,5,7-trihydroxy-isoflavone], the “dose dependence of tear volume restoration” value (250 vs 50 genistein supplementation groups) is reported as “more pronounced in the group supplemented with 250 mg than in that with 50 mg” and the “tear volume (Zone Quick test, length of wetted thread)” value (genistein as feed admixture, 50 or 250 ppm, supplementation 2.5 weeks (MIDTEST) and 5.0 weeks (FINALTEST), compared with control animals) is reported as “restored their tear volume almost to control values”.
